{"source": "patent US20170190705A1", "about": "“Compositions and Methods for Inhibiting BMP” (THE BRIGHAM AND WOMAN'S HOSPITAL, INC., priority 2014, published 2017)", "format_in_all_cases": "biochemical", "key": {"TBK1": {"target": "T1, TBK1 (Homo sapiens, UniProt Q9UHD2)", "T1 sequence (Q9UHD2 1-729)": "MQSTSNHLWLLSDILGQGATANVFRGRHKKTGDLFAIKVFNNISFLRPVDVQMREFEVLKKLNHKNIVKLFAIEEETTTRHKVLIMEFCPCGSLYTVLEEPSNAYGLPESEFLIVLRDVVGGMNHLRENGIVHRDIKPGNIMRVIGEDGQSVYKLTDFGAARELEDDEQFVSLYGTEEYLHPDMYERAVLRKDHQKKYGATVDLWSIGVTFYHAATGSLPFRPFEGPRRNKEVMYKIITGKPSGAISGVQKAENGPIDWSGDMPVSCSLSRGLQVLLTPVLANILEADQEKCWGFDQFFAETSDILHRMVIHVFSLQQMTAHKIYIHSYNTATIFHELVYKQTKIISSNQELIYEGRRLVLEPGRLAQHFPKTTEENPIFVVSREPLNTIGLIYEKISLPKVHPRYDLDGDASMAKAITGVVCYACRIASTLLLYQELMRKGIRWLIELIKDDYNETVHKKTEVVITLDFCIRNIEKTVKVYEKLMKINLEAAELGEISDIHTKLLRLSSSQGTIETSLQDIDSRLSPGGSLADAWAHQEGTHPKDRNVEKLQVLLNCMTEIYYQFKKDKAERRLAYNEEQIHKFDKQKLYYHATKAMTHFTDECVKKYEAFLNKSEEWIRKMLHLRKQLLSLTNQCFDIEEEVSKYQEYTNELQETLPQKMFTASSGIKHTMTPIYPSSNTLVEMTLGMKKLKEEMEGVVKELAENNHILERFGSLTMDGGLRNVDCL", "assay": "Kinome profiling TBK1", "details": "read-out: Inhibitory activity TBK1; for inhibition at 0.1 µM: 100 nM", "protocol": "(§1) . The kinome-wide selectivity was determined following the methods previously reported by Mohedas et al., ACS Chem Biol 2013, 8, 1291-1302 and Sanvitale et al., PLoS One 2013, 8, e62721."}, "PAK3": {"target": "PAK3 (Homo sapiens, UniProt O75914)", "sequence (O75914 whole entry)": "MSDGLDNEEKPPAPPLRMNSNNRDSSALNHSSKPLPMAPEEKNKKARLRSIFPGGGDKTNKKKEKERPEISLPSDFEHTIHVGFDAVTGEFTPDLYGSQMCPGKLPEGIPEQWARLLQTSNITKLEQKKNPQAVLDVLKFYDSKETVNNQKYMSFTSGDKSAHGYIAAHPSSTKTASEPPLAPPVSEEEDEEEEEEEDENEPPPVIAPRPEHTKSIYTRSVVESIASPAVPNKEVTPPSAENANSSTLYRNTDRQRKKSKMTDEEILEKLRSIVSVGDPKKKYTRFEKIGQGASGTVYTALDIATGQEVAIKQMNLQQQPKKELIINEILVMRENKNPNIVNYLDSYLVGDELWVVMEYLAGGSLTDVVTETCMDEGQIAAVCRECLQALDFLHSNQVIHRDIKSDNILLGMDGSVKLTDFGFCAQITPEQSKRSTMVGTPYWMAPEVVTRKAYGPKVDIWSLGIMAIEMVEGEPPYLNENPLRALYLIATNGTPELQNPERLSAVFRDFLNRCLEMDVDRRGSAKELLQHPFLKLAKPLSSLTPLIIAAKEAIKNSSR", "assay": "Kinome profiling PAK3", "details": "read-out: Inhibitory activity PAK3; for inhibition at 0.1 µM: 100 nM", "protocol": "as §1"}, "CDK1/cyclinB": {"target": "CDK1/cyclinB (Homo sapiens, UniProt P06493)", "sequence (P06493 whole entry)": "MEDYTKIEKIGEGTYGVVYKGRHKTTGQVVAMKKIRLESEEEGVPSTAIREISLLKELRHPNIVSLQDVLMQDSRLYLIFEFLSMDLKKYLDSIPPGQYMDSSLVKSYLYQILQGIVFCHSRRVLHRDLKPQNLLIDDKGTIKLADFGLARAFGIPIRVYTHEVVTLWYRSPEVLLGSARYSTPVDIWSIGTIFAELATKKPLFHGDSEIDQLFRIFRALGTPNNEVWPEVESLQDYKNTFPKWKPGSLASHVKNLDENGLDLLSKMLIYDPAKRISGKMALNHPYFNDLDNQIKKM", "sequence (P14635 whole entry partner)": "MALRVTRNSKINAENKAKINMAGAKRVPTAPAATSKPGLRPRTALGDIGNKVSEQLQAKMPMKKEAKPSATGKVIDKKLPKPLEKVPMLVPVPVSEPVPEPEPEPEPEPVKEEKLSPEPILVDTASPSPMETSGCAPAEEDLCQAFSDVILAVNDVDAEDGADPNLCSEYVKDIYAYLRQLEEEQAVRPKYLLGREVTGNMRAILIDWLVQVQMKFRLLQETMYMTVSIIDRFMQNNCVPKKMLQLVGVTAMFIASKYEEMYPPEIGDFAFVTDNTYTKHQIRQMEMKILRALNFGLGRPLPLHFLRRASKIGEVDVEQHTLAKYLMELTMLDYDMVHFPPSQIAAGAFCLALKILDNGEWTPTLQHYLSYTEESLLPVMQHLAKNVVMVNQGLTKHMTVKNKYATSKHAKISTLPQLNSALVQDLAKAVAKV", "assay": "Kinome profiling CDK1/cyclinB", "details": "read-out: Inhibitory activity CDK1/cyclinB; for inhibition at 0.1 µM: 100 nM", "protocol": "as §1"}, "CDK3/cyclinE": {"target": "CDK3/cyclinE (Homo sapiens, UniProt Q00526)", "sequence (Q00526 whole entry)": "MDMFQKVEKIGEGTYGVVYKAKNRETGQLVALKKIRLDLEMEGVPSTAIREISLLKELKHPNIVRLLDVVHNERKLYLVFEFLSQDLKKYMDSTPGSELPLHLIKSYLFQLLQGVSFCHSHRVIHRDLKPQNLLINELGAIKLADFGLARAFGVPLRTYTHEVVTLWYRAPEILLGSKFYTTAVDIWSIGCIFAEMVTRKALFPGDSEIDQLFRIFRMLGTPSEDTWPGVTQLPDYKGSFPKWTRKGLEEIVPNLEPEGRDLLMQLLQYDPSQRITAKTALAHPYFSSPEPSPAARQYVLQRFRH", "sequence (P24864 whole entry partner)": "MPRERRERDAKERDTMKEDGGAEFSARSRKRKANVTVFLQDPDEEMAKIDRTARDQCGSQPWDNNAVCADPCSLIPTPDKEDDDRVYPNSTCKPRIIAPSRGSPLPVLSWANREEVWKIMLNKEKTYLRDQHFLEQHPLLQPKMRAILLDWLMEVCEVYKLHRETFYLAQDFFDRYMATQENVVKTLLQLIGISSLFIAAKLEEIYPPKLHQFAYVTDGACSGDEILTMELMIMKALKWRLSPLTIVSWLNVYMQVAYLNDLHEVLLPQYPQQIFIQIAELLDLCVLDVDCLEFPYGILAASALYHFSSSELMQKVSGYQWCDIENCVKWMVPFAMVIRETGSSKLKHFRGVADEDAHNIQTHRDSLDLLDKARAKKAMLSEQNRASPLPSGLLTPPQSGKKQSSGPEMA", "assay": "Kinome profiling CDK3/cyclinE", "details": "read-out: Inhibitory activity CDK3/cyclinE; for inhibition at 0.1 µM: 100 nM", "protocol": "as §1"}, "FGFR4": {"target": "FGFR4 (Homo sapiens, UniProt P22455)", "sequence (P22455 22-802)": "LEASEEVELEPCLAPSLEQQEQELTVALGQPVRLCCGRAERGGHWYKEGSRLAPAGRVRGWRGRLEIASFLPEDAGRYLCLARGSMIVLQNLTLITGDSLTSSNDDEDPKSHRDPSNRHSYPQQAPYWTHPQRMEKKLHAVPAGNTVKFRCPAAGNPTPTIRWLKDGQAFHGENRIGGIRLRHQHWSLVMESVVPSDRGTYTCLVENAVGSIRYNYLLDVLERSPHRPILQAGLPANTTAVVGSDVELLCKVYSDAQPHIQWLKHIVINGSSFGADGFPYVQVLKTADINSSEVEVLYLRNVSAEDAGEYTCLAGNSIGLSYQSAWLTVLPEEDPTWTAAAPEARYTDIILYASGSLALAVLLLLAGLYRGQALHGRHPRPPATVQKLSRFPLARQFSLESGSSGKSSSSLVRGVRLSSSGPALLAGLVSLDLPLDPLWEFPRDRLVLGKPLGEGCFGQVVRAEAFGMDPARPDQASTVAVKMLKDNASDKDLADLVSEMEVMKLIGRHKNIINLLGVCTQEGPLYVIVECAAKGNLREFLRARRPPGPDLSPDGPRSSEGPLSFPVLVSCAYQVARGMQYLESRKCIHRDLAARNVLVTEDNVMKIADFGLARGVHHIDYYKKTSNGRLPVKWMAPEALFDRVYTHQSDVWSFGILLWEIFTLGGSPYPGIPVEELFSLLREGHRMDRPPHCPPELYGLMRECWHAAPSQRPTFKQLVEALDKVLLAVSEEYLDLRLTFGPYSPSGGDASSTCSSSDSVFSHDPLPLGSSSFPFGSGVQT", "assay": "Kinome profiling FGFR4", "details": "read-out: Inhibitory activity FGFR4; for inhibition at 0.1 µM: 100 nM", "protocol": "as §1"}, "BRSK1": {"target": "T2, BRSK1 (Homo sapiens, UniProt Q8TDC3)", "T2 sequence (Q8TDC3 1-778)": "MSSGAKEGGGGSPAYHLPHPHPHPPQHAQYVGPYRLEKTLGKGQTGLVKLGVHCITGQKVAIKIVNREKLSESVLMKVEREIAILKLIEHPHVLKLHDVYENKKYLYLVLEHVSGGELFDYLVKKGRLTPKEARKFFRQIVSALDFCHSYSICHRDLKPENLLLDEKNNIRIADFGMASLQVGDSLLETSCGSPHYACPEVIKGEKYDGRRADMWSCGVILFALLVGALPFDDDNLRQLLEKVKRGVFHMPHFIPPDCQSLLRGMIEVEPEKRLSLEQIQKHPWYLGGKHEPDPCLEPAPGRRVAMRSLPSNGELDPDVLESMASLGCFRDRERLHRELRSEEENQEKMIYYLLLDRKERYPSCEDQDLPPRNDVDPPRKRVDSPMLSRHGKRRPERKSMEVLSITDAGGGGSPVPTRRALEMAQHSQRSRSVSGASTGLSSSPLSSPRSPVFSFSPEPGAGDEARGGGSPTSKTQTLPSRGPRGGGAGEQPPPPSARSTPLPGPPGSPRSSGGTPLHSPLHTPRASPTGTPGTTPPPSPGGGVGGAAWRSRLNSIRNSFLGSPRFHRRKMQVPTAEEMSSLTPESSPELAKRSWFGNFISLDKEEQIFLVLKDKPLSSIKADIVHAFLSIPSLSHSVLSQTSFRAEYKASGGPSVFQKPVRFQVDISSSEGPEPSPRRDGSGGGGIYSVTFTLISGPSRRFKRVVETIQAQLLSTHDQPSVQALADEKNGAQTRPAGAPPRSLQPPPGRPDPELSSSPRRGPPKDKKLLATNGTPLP", "assay": "Kinome profiling BRSK1", "details": "read-out: Inhibitory activity BRSK1; for inhibition at 0.1 µM: 100 nM", "protocol": "as §1"}, "MARK3": {"target": "MARK3 (Homo sapiens, UniProt P27448)", "sequence (P27448 whole entry)": "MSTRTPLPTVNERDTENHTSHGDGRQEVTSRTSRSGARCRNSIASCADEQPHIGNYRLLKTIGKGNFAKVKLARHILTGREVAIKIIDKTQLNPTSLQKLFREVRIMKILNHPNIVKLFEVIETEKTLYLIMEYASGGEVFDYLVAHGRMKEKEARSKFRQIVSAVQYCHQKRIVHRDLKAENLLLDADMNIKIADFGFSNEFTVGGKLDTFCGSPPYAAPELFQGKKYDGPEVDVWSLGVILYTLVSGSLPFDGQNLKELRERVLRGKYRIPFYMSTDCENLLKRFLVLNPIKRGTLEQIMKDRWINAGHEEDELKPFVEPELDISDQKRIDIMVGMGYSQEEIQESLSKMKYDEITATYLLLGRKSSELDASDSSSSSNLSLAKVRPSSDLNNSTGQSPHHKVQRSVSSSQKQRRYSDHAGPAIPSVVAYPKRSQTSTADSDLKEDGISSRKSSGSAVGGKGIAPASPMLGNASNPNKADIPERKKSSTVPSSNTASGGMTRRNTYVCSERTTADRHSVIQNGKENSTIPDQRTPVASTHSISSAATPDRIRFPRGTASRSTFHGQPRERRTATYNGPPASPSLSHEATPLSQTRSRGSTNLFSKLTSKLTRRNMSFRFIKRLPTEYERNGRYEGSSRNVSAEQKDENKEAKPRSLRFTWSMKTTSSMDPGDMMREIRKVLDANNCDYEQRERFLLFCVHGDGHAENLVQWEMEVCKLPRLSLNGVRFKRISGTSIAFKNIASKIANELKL", "assay": "Kinome profiling MARK3", "details": "read-out: Inhibitory activity MARK3; for inhibition at 0.1 µM: 100 nM", "protocol": "as §1"}, "PRKX": {"target": "T3, PRKX (Homo sapiens, UniProt P51817)", "T3 sequence (P51817 1-358)": "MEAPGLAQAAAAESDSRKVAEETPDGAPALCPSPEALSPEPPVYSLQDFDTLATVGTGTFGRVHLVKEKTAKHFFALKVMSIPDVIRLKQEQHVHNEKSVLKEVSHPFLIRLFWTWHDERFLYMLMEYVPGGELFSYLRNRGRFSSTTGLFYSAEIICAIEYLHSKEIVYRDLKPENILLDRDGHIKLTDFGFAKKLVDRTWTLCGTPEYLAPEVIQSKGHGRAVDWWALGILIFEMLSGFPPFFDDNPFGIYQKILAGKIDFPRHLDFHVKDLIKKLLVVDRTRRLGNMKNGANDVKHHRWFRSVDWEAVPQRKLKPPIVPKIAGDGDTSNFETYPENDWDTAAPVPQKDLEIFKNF", "assay": "Kinome profiling PRKX", "details": "read-out: Inhibitory activity PRKX; for inhibition at 0.1 µM: 100 nM", "protocol": "as §1"}, "CK1-γ3": {"target": "CK1-γ3 (Homo sapiens, UniProt Q9Y6M4)", "sequence (Q9Y6M4 whole entry)": "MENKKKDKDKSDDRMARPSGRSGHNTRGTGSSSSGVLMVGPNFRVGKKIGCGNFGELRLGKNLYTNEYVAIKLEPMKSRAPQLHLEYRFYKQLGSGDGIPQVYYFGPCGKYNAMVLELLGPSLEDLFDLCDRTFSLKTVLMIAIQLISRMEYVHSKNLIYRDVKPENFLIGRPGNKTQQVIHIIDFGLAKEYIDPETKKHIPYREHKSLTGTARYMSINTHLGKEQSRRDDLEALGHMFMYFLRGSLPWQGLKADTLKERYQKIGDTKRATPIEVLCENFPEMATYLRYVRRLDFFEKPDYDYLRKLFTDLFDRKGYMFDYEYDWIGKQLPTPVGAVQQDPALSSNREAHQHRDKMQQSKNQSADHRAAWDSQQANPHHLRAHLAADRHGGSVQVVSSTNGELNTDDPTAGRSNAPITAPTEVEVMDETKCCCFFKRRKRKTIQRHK", "assay": "Kinome profiling CK1-γ3", "details": "read-out: Inhibitory activity CK1-γ3; for inhibition at 0.1 µM: 100 nM", "protocol": "as §1"}}, "data": [{"smiles": "COc1cc(-c2cc(-c3ccc(N4CCNCC4)cc3)cnc2C)cc(OC)c1OC", "note": "[Compound 10, 1-(4-(6-methyl-5-(3,4,5-trimethoxyphenyl)pyridin-3-yl)phenyl)piperazine]", "values": [{"measurement": "inhibition at 0.1 µM", "setting": "TBK1", "result": 1, "unit": "%"}, {"measurement": "inhibition at 1 µM", "setting": "TBK1", "result": 4, "unit": "%"}, {"measurement": "inhibition at 0.1 µM", "setting": "PAK3", "result": 2, "unit": "%"}, {"measurement": "inhibition at 1 µM", "setting": "PAK3", "result": 2, "unit": "%"}, {"measurement": "inhibition at 0.1 µM", "setting": "CDK1/cyclinB", "result": 2, "unit": "%"}, {"measurement": "inhibition at 1 µM", "setting": "CDK1/cyclinB", "result": 3, "unit": "%"}, {"measurement": "inhibition at 0.1 µM", "setting": "CDK3/cyclinE", "result": 2, "unit": "%"}, {"measurement": "inhibition at 1 µM", "setting": "CDK3/cyclinE", "result": 2, "unit": "%"}, {"measurement": "inhibition at 0.1 µM", "setting": "FGFR4", "result": 1, "unit": "%"}, {"measurement": "inhibition at 1 µM", "setting": "FGFR4", "result": 2, "unit": "%"}, {"measurement": "inhibition at 0.1 µM", "setting": "BRSK1", "result": 1, "unit": "%"}, {"measurement": "inhibition at 1 µM", "setting": "BRSK1", "result": 1, "unit": "%"}, {"measurement": "inhibition at 0.1 µM", "setting": "MARK3", "result": 0, "unit": "%"}, {"measurement": "inhibition at 1 µM", "setting": "MARK3", "result": 3, "unit": "%"}, {"measurement": "inhibition at 0.1 µM", "setting": "PRKX", "result": 0, "unit": "%"}, {"measurement": "inhibition at 1 µM", "setting": "PRKX", "result": 1, "unit": "%"}, {"measurement": "inhibition at 0.1 µM", "setting": "CK1-γ3", "result": 1, "unit": "%"}, {"measurement": "inhibition at 1 µM", "setting": "CK1-γ3", "result": 10, "unit": "%"}]}, {"smiles": "COc1cc(-c2cc(-c3ccc(N4CCNCC4)cc3)cnc2N)cc(OC)c1OC", "note": "[Compound 15, 5-(4-(piperazin-1-yl)phenyl)-3-(3,4,5-trimethoxyphenyl)pyridin-2-amine]", "values": [{"measurement": "inhibition at 0.1 µM", "setting": "TBK1", "result": 6, "unit": "%"}, {"measurement": "inhibition at 1 µM", "setting": "TBK1", "result": 23, "unit": "%"}, {"measurement": "inhibition at 0.1 µM", "setting": "PAK3", "result": 1, "unit": "%"}, {"measurement": "inhibition at 1 µM", "setting": "PAK3", "result": 1, "unit": "%"}, {"measurement": "inhibition at 0.1 µM", "setting": "CDK1/cyclinB", "result": -1, "unit": "%"}, {"measurement": "inhibition at 1 µM", "setting": "CDK1/cyclinB", "result": 0, "unit": "%"}, {"measurement": "inhibition at 0.1 µM", "setting": "CDK3/cyclinE", "result": 0, "unit": "%"}, {"measurement": "inhibition at 1 µM", "setting": "CDK3/cyclinE", "result": 0, "unit": "%"}, {"measurement": "inhibition at 0.1 µM", "setting": "FGFR4", "result": 1, "unit": "%"}, {"measurement": "inhibition at 1 µM", "setting": "FGFR4", "result": 0, "unit": "%"}, {"measurement": "inhibition at 0.1 µM", "setting": "BRSK1", "result": 0, "unit": "%"}, {"measurement": "inhibition at 1 µM", "setting": "BRSK1", "result": 0, "unit": "%"}, {"measurement": "inhibition at 0.1 µM", "setting": "MARK3", "result": 4, "unit": "%"}, {"measurement": "inhibition at 1 µM", "setting": "MARK3", "result": 48, "unit": "%"}, {"measurement": "inhibition at 0.1 µM", "setting": "PRKX", "result": 1, "unit": "%"}, {"measurement": "inhibition at 1 µM", "setting": "PRKX", "result": 0, "unit": "%"}, {"measurement": "inhibition at 0.1 µM", "setting": "CK1-γ3", "result": 7, "unit": "%"}, {"measurement": "inhibition at 1 µM", "setting": "CK1-γ3", "result": 30, "unit": "%"}]}]}
